Results on three molecules are retold here after paper PMC3323550, “Functional Characterization of EngA^MS, a P-Loop GTPase of Mycobacterium smegmatis” (PLoS ONE, 2012).

The target in series [1] is T1, EngA^MS (MSMEG_3738) (Mycolicibacterium smegmatis, UniProt A0QYP9).
T1 construct: gene der
T1 sequence (A0QYP9 1-471): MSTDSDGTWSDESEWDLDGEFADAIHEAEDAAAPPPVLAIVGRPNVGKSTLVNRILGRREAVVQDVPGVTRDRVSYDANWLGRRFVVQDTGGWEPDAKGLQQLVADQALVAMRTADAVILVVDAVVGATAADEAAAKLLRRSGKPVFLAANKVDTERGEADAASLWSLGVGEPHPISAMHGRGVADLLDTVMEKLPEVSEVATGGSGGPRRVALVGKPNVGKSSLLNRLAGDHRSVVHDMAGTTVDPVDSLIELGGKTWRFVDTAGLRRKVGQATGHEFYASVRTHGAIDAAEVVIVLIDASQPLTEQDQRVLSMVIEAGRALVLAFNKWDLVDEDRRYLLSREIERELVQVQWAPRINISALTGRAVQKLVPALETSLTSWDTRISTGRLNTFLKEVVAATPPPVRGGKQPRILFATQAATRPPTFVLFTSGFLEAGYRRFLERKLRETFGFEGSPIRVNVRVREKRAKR
Description: colorimetric Pi release GTPase assay. The series is classed as biochemical.

Series [2] has as its target T2, EngA^MS (MSMEG_3738) (Mycolicibacterium smegmatis, UniProt A0QYP9, D331N).
T2 construct: gene der
The series can be described thus: fluorescent mant-nucleotide binding assay, single concentration. As to conditions: 4 µM protein, 1 µM mant-GDP, 40 mM Tris-Cl pH 8.0, 2 mM MgCl2, 40% glycerol, room temperature; labelled compound.

The target of series [3] is T3, EngA^MS (MSMEG_3738) (Mycolicibacterium smegmatis, UniProt A0QYP9, D154N).
T3 construct: gene der
Described as above. As to conditions: 4 µM protein, 1 µM mant-GDP, 40 mM Tris-Cl pH 8.0, 2 mM MgCl2, 40% glycerol, room temperature; labelled compound.

Substrate in series [4]: Nc1nc2c(ncn2[C@@H]2O[C@H](COP(=O)(O)OP(=O)(O)OP(=O)(O)O)[C@@H](O)[C@H]2O)c(=O)[nH]1
The series can be described thus: colorimetric Pi release GTPase assay. The series is classed as biochemical, Mycolicibacterium smegmatis. As to conditions: 40 mM Tris-Cl pH 8.0, 2 mM MgCl2, 40% glycerol, 1 h, no GDP.

T2 sequence (A0QYP9 entry or part of it D331N): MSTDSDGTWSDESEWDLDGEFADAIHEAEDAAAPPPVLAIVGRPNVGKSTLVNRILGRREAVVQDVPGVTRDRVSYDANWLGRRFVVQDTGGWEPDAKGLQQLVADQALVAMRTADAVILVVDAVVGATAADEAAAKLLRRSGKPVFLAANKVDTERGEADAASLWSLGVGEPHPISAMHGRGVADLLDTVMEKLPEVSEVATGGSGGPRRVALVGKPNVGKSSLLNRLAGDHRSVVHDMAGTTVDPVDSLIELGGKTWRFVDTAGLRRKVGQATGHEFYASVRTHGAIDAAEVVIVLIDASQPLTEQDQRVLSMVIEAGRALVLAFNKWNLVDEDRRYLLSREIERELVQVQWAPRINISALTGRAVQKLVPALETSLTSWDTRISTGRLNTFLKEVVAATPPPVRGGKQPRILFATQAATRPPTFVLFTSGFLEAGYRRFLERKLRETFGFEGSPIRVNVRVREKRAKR
T3 sequence (A0QYP9 entry or part of it D154N): as the sequence (A0QYP9 entry or part of it D331N) above, with D154N, N331D counted along it

The molecule `Nc1nc2c(ncn2[C@@H]2O[C@H](COP(=O)(O)OP(=O)(O)O)[C@@H](O)[C@H]2O)c(=O)[nH]1` [GDP] had an inhibition at 200 µM on EngA^MS (MSMEG_3738) [1] of 40%.

`CNc1ccccc1C(=O)O[C@H]1[C@@H](O)[C@H](n2cnc3c(=O)[nH]c(N)nc32)O[C@@H]1COP(=O)(O)OP(=O)(O)O` [mant-GDP]: the “% reduction in binding affinity vs wild-type” value on EngA^MS (MSMEG_3738) [2] and at EngA^MS (MSMEG_3738) [3] was ~ 50% in each case.

B1: EngA^MS (MSMEG_3738) (Mycolicibacterium smegmatis MC2 155) (protein)
chain: T1 sequence (A0QYP9 1-471)
For B1, in series [4], the Km came to 39 µM and the kcat was 8.3e-05 s⁻¹.
